Laboratory results from article PMC9395446, “First-in-human phase 1/1b study to evaluate sitravatinib in patients with advanced solid tumors” (Investigational New Drugs, 2022).
Values joined by “and” are separate entries in the source; they are usually repeats but may differ in a detail not shown here. Equal values may be shown once.

Test system: advanced solid tumors
Assay: Clinical activity by RECIST v1.1 (ORR, DoR, PFS, OS), phase 1b
Type: in vivo, human
Procedure: Clinical activity was assessed by objective response rate (ORR) according to Response Evaluation Criteria In Solid Tumors (RECIST) v1.1. Additional endpoints included duration of response (DoR), progression-free survival (PFS) and overall survival (OS) in phase 1b cohorts of patients based on diagnosis and tumor molecular alterations. An exploratory post-hoc analysis of patients with non-squamous NSCLC who experienced disease progression on prior checkpoint inhibitor (CPI) therapy was performed.
Disease status was evaluated according to RECIST v1.1 at baseline and every three cycles in phase 1, and every two cycles (6-week intervals) in phase 1b. Assessments were performed until objective disease progression was documented or until subsequent anti-cancer therapy started (see Supplementary Information [Sect. 1.3] for details).
DoR, PFS and OS were reported descriptively and summarized using the Kaplan–Meier method. DoR was defined as the time from first documentation of objective tumor response (complete response [CR] or partial response [PR]) until first documentation of disease progression per RECIST 1.1 or death (any cause). PFS was defined as the time from first dose of study treatment until progressive disease as defined by RECIST 1.1 or death (any cause). OS was defined as the time from first dose of study treatment until death (any cause).

[1] = NSCLC with molecular alterations (n = 53)
[2] = non-squamous NSCLC with prior CPI experience (n = 24)
[3] = phase 1b Chr4q12 amplification (n=16)
[4] = phase 1b NSCLC KIF5B-RET (n=13)
[5] = phase 1b NSCLC RET rearrangement (n=23)
[6] = phase 1b all molecular alterations (n=113)
[7] = phase 1b mITT overall (n = 161)
[8] = phase 1b overall RET rearrangement (n=31)

COCCNCc1ccc(-c2cc3nccc(Oc4ccc(NC(=O)C5(C(=O)Nc6ccc(F)cc6)CC5)cc4F)c3s2)nc1 [sitravatinib, Sitravatinib]
ORR (NSCLC with a molecular alteration of interest): 13.2%
CR [1]: 0 n (%)
DoR 6-month KM estimate (95% CI) [1]: 28.6 (4.1, 61.2) %
DoR median (95% CI) [1]: 3.0 (1.8, 10.2) months
NE (non-evaluable) [1]: 8 (15.1) n (%)
ORR [1]: 7 (13.2) n (%)
OS 12-month KM estimate (95% CI) [1]: 47.6 (32.4, 61.3) %
OS median (95% CI) [1]: 11.6 (6.6, 18.2) months
PD (progressive disease) [1]: 8 (15.1) n (%)
PFS 6-month KM estimate (95% CI) [1]: 32.2 (19.2, 46.0) %
PFS median (95% CI) [1]: 4.3 (2.9, 5.7) months
PR [1]: 7 (13.2) n (%)
ORR (non-squamous NSCLC with prior CPI experience (exploratory)): 4.2%
CR [2]: 0 n (%)
DoR 6-month KM estimate (95% CI) [2]: 100 (100, 100) %
DoR median (95% CI) [2]: 10.2 (NE, NE) months
NE (non-evaluable) [2]: 6 (25.0) n (%)
ORR [2]: 1 (4.2) n (%)
OS 12-month KM estimate (95% CI) [2]: 36.8 (16.5, 57.5) %
OS median (95% CI) [2]: 5.2 (2.4, 33.8) months
PD (progressive disease) [2]: 5 (20.8) n (%)
PFS 6-month KM estimate (95% CI) [2]: 24.8 (7.8, 46.6) %
PFS median (95% CI) [2]: 2.9 (1.5, 4.9) months
PR [2]: 1 (4.2) n (%)
ORR (overall phase 1b mITT population): 11.8%
CR (phase 1b AXL alteration (n=7)): 0 n (%)
NE (phase 1b AXL alteration (n=7)): 0 n (%)
ORR (phase 1b AXL alteration (n=7)): 1 (14.3) n (%)
OS 12-month KM estimate (95% CI) (phase 1b AXL alteration (n=7)): 26.8 (1.3, 67.0) %
OS median (95% CI) (phase 1b AXL alteration (n=7)): 10.0 (2.2, NE) months
PD (progressive disease) (phase 1b AXL alteration (n=7)): 2 (28.6) n (%)
PFS 6-month KM estimate (95% CI) (phase 1b AXL alteration (n=7)): 71.4 (25.8, 92.0) %
PFS median (95% CI) (phase 1b AXL alteration (n=7)): NR (1.2, NE)
PR (phase 1b AXL alteration (n=7)): 1 (14.3) n (%)
CR (phase 1b CBL alteration (n=31)): 0 n (%)
DoR 6-month KM estimate (95% CI) (phase 1b CBL alteration (n=31)): 50.0 (0.6, 91.0) %
DoR median (95% CI) (phase 1b CBL alteration (n=31)): NR (4.3, NE)
NE (phase 1b CBL alteration (n=31)): 9 (29.0) n (%)
ORR (phase 1b CBL alteration (n=31)): 2 (6.5) n (%)
OS 12-month KM estimate (95% CI) (phase 1b CBL alteration (n=31)): 20.2 (7.4, 37.3) %
OS median (95% CI) (phase 1b CBL alteration (n=31)): 5.0 (3.2, 9.9) months
PD (progressive disease) (phase 1b CBL alteration (n=31)): 9 (29.0) n (%)
PFS 6-month KM estimate (95% CI) (phase 1b CBL alteration (n=31)): 12.3 (3.1, 28.3) %
PFS median (95% CI) (phase 1b CBL alteration (n=31)): 2.0 (1.3, 4.1) months
PR (phase 1b CBL alteration (n=31)): 2 (6.5) n (%)
CR (phase 1b CRPC (n=10)): 0 n (%)
NE (phase 1b CRPC (n=10)): 3 (30.0) n (%)
ORR (phase 1b CRPC (n=10)): 0 n (%)
OS 12-month KM estimate (95% CI) (phase 1b CRPC (n=10)): 18.2 (0.8, 54.5) %
OS median (95% CI) (phase 1b CRPC (n=10)): 10.1 (2.8, 23.2) months
PD (progressive disease) (phase 1b CRPC (n=10)): 1 (10.0) n (%)
PFS 6-month KM estimate (95% CI) (phase 1b CRPC (n=10)): 50.0 (11.1, 80.4) %
PFS median (95% CI) (phase 1b CRPC (n=10)): 5.8 (2.1, NE) months
PR (phase 1b CRPC (n=10)): 0 n (%)
CR [3]: 0 n (%)
NE [3]: 4 (25.0) n (%)
ORR [3]: 0 n (%)
OS 12-month KM estimate (95% CI) [3]: 35.2 (13.3, 58.2) %
OS median (95% CI) [3]: 9.5 (3.6, 18.1) months
PD (progressive disease) [3]: 3 (18.8) n (%)
PFS 6-month KM estimate (95% CI) [3]: 23.8 (5.8, 48.5) %
PFS median (95% CI) [3]: 2.7 (1.3, 4.4) months
PR [3]: 0 n (%)
CR (phase 1b MET alteration (n=17)): 0 n (%)
DoR median (95% CI) (phase 1b MET alteration (n=17)): NR (3.0, NE)
NE (phase 1b MET alteration (n=17)): 3 (17.6) n (%)
ORR (phase 1b MET alteration (n=17)): 2 (11.8) n (%)
OS 12-month KM estimate (95% CI) (phase 1b MET alteration (n=17)): 27.1 (8.4, 50.2) %
OS median (95% CI) (phase 1b MET alteration (n=17)): 7.3 (3.5, 13.9) months
PD (progressive disease) (phase 1b MET alteration (n=17)): 2 (11.8) n (%)
PFS 6-month KM estimate (95% CI) (phase 1b MET alteration (n=17)): 16.4 (2.8, 40.0) %
PFS median (95% CI) (phase 1b MET alteration (n=17)): 2.9 (1.9, 4.3) months
PR (phase 1b MET alteration (n=17)): 2 (11.8) n (%)
CR [4]: 0 n (%)
DoR 6-month KM estimate (95% CI) [4]: 100.0 (100.0, 100.0) %
DoR median (95% CI) [4]: 10.2 (NE, NE) months
NE [4]: 3 (23.1) n (%)
ORR [4]: 1 (7.7) n (%)
OS 12-month KM estimate (95% CI) [4]: 79.5 (39.3, 94.5) %
OS median (95% CI) [4]: 27.2 (10.9, 33.8) months
PD (progressive disease) [4]: 3 (23.1) n (%)
PFS 6-month KM estimate (95% CI) [4]: 36.4 (11.2, 62.7) %
PFS median (95% CI) [4]: 5.7 (1.5, 13.5) months
PR [4]: 1 (7.7) n (%)
CR [5]: 0 n (%)
DoR 6-month KM estimate (95% CI) [5]: 25.0 (0.9, 66.5) %
DoR median (95% CI) [5]: 2.3 (1.8, 10.2) months
NE [5]: 3 (13.0) n (%)
ORR [5]: 4 (17.4) n (%)
OS 12-month KM estimate (95% CI) [5]: 73.2 (46.6, 88.1) %
OS median (95% CI) [5]: 27.2 (10.9, NE) months
PD (progressive disease) [5]: 3 (13.0) n (%)
PFS 6-month KM estimate (95% CI) [5]: 40.3 (19.5, 60.4) %
PFS median (95% CI) [5]: 5.7 (3.0, 13.5) months
PR [5]: 4 (17.4) n (%)
CR (phase 1b RCC (n=38)): 0 n (%)
DoR 6-month KM estimate (95% CI) (phase 1b RCC (n=38)): 100.0 (100.0, 100.0) %
DoR median (95% CI) (phase 1b RCC (n=38)): 13.2 (6.8, NE) months
NE (phase 1b RCC (n=38)): 3 (7.9) n (%)
ORR (phase 1b RCC (n=38)): 8 (21.1) n (%)
OS 12-month KM estimate (95% CI) (phase 1b RCC (n=38)): 60.1 (41.3, 74.6) %
OS median (95% CI) (phase 1b RCC (n=38)): 29.3 (10.8, 33.4) months
PD (progressive disease) (phase 1b RCC (n=38)): 4 (10.5) n (%)
PFS 6-month KM estimate (95% CI) (phase 1b RCC (n=38)): 62.6 (43.5, 76.9) %
PFS median (95% CI) (phase 1b RCC (n=38)): 9.5 (4.3, 11.7) months
PR (phase 1b RCC (n=38)): 8 (21.1) n (%)
CR [6]: 0 n (%)
DoR 6-month KM estimate (95% CI) [6]: 53.0 (20.9, 77.3) %
DoR median (95% CI) [6]: 7.0 (1.9, 15.2) months
ORR [6]: 11 (9.7) n (%)
OS 12-month KM estimate (95% CI) [6]: 36.1 (26.3, 45.9) %
OS median (95% CI) [6]: 9.9 (7.1, 10.9) months
PD (progressive disease) [6]: 23 (20.4) n (%)
PFS 6-month KM estimate (95% CI) [6]: 28.5 (19.6, 38.0) %
PFS median (95% CI) [6]: 3.6 (2.7, 4.4) months
PR [6]: 11 (9.7) n (%)
CR [7]: 0 n (%)
DoR 6-month KM estimate (95% CI) [7]: 71.3% and 71.3 (44.0, 87.0) %
DoR median (95% CI) [7]: 8.2 months and 8.2 (4.3, 16.6) months
NE (non-evaluable) [7]: 26 (16.1) n (%)
ORR [7]: 19 (11.8) n (%)
OS 12-month KM estimate (95% CI) [7]: 41.3% and 41.3 (32.7, 49.6) %
OS median (95% CI) [7]: 10.7 months and 10.7 (9.9, 11.9) months
PD (progressive disease) [7]: 28 (17.4) n (%)
PFS 6-month KM estimate (95% CI) [7]: 37.5% and 37.5 (29.2, 45.9) %
PFS median (95% CI) [7]: 4.3 months and 4.3 (3.1, 5.6) months
PR [7]: 19 (11.8) n (%)
CR [8]: 0 n (%)
DoR 6-month KM estimate (95% CI) [8]: 40.0 (5.2, 75.3) %
DoR median (95% CI) [8]: 2.8 (1.8, 10.2) months
NE [8]: 3 (9.7) n (%)
ORR [8]: 5 (16.1) n (%)
OS 12-month KM estimate (95% CI) [8]: 66.5 (43.3, 82.0) %
OS median (95% CI) [8]: 18.2 (10.9, 33.8) months
PD (progressive disease) [8]: 5 (16.1) n (%)
PFS 6-month KM estimate (95% CI) [8]: 39.5 (21.8, 56.7) %
PFS median (95% CI) [8]: 5.3 (3.0, 6.7) months
PR [8]: 5 (16.1) n (%)
